Measurements published in the Kinase Knowledgebase extract (Sharma et al. 2016).
One block for each compound: values may come before it.

How the values were obtained:
[1] = biological target: EGFR (UniProt P00533)
[2] = biological target: CDK2 (UniProt P24941); experiment: Enzyme Assay
[3] = biological target: EGFR (UniProt P00533); remark: listed apart in the source
[4] = biological target: EGFR (human) (UniProt P00533); conditions: a431
[5] = biological target: EGFR (UniProt P00533); remark: listed apart in the source
[6] = biological target: MAPK14 (human) (UniProt Q16539); experiment: Inhibition of MAPK14 Kinase Activity
Sequence of MAPK14 (human) (Q16539 whole entry, looked up): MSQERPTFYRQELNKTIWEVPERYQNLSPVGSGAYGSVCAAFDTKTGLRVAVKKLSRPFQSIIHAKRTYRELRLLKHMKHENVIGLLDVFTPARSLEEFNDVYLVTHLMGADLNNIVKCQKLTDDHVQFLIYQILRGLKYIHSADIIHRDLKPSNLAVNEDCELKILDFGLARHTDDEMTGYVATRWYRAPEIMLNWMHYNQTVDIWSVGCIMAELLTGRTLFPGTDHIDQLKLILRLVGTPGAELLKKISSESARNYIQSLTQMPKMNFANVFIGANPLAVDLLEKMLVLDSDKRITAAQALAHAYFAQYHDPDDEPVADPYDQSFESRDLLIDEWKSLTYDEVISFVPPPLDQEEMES

[7] = biological target: EGFR (human) (UniProt P00533); conditions: a431; remark: listed apart in the source
[8] = biological target: EGFR (UniProt P00533); remark: listed apart in the source
[9] = biological target: MAP2K1;MAPK14 (human) (UniProt Q16539); experiment: Inhibition of LOVO Cell Proliferation by MTT Assay
Sequence of MAP2K1;MAPK14 (human) (Q16539 whole entry, looked up): as above

[10] = biological target: MAP2K1;MAPK14 (human) (UniProt Q16539); experiment: Inhibition of CaCO Cell Proliferation by MTT Assay; conditions: caco-2
[11] = biological target: PIK3CA (UniProt P42336); experiment: Inhibition of PIK3CA Kinase Activity
[12] = biological target: MAPK14 (UniProt Q16539); experiment: In Vitro p38 Inhibition
Sequence of MAPK14 (Q16539 whole entry, looked up): as above

[13] = biological target: EGFR (UniProt P00533); remark: listed apart in the source
[14] = biological target: EGFR (human) (UniProt P00533); conditions: a431; remark: listed apart in the source
[15] = biological target: EGFR (human) (UniProt P00533); conditions: a431; remark: listed apart in the source
[16] = biological target: EGFR (human) (UniProt P00533); conditions: f/l herc cells
[17] = biological target: EGFR (murine) (UniProt P00533); conditions: nih3t3
Sequence of EGFR (murine) (P00533 whole entry, looked up): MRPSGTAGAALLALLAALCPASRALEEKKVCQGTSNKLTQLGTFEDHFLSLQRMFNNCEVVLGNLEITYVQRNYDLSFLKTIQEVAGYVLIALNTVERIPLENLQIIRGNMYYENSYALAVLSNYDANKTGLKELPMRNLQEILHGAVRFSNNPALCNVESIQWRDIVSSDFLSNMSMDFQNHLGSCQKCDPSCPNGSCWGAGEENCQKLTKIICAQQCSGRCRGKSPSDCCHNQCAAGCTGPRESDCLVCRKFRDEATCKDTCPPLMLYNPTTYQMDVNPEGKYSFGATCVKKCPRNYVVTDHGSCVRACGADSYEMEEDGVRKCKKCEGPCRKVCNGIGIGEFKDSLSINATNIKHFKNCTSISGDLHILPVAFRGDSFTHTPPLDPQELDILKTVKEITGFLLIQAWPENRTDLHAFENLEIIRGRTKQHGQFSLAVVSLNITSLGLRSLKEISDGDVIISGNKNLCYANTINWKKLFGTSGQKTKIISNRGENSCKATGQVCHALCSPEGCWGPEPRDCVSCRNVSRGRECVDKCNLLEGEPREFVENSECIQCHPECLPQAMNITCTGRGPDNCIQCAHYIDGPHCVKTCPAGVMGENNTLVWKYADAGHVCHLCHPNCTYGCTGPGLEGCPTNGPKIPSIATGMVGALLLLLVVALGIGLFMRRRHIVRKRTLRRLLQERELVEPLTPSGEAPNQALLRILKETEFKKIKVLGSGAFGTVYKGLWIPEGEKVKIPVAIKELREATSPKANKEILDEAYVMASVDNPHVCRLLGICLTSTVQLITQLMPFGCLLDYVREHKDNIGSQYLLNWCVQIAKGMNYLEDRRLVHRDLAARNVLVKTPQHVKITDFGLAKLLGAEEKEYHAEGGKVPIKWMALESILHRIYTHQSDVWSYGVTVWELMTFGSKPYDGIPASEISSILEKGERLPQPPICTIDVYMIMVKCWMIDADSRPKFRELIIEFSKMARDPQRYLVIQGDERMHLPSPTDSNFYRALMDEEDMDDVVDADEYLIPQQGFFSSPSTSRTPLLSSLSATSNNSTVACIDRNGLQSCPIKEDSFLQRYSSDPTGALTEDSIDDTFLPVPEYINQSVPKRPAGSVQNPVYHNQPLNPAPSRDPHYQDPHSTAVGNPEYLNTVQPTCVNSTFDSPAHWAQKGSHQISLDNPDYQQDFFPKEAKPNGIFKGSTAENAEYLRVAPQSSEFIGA

[18] = biological target: EGFR (human) (UniProt P00533); conditions: a431, concentration not given here
[19] = biological target: EGFR (UniProt P00533); remark: listed apart in the source
[20] = tested on: MAPK14 (Balb/c mice); experiment: Cell-Based Assay; conditions: peritoneal macrophage
[21] = biological target: MAPK14 (UniProt Q16539); experiment: Enzyme Assay
[22] = biological target: EGFR (UniProt P00533); remark: listed apart in the source
[23] = biological target: EGFR (UniProt P00533); remark: listed apart in the source
[24] = biological target: EGFR (murine) (UniProt P00533); conditions: f/l-herc
[25] = tested on: MAPK14 (Balb/c mice); experiment: Inhibition of LPS Induced TNF-alpha Release in Mice
[26] = tested on: MAPK14 (Balb/c mice); experiment: Animal Model; conditions: dose or concentration not given here
[27] = biological target: CDK2 (UniProt P24941); experiment: Enzyme Assay; remark: listed apart in the source
[28] = biological target: CDK2 (UniProt P24941); experiment: Enzyme Assay; remark: listed apart in the source
[29] = biological target: EGFR (UniProt P00533); remark: listed apart in the source
[30] = biological target: CDK2 (UniProt P24941); experiment: Enzyme Assay; conditions: concentration not given here
[31] = biological target: EGFR (UniProt P00533); remark: listed apart in the source
[32] = biological target: EGFR (human) (UniProt P00533); conditions: a431; remark: listed apart in the source
[33] = biological target: ROCK2 (UniProt O75116); experiment: Inhibition of COS cell Derived Rho kinase (ROCKII)

Sequence of EGFR (P00533 whole entry, looked up): as above
Sequence of EGFR (human) (P00533 whole entry, looked up): as above

- IC50 [7]: 9.6 nM
- IC50 [8]: 4.8 nM
Structure (SMILES): Brc1cccc(Nc2ncnc3cc4[nH]cc(CNN5CCOCC5)c4cc23)c1

- IC50 [9]: 36 nM
- IC50 [10]: > 1000 nM
Structure (SMILES): COc1cc2c(Nc3ccc(Sc4nccn4C)c(Cl)c3)c(C#N)cnc2cc1OCCC[N+]1([O-])CCSCC1

- IC50 [14]: > 50000 nM
- IC50 [15]: > 50000 nM
Structure (SMILES): C/C(=C/c1cc2c(N)nc(N)nc2o1)c1ccc2ccccc2c1

- IC50 [16]: 17 nM
Structure (SMILES): CCOC(=O)CN1CCN(C/C=C/C(=O)Nc2cc3c(Nc4ccc(F)c(Cl)c4)ncnc3cc2OCCC2CC2)CC1

- activity [18]: 0%
Structure (SMILES): C=CC(=O)Nc1ccc2ncnc(Nc3ccc(Oc4ccccc4)cc3)c2c1

- IC50 [19]: 377 nM
Structure (SMILES): Cc1cc(C(=O)N2CCOCC2)[nH]c1/C=C1/C(=O)Nc2ncnc(Nc3cccc4c3CCC4)c21

- IC50 [8]: 0.006 nM
Structure (SMILES): Brc1cccc(Nc2ncnc3cc4c(cc23)OCCO4)c1

- IC50 [24]: > 10000 nM
Structure (SMILES): O[C@H]1CC[C@H](Nc2ncc3ncnc(Nc4ccc5c(c4)-c4ccccc4C5)c3n2)CC1

- IC50 [32]: 12600 nM
Structure (SMILES): C=CC(=O)Cc1ccc2ncnc(Nc3cccc(Br)c3)c2c1

- IC50 [16]: 9 nM
Structure (SMILES): CCC(=O)CN(C)C/C=C/C(=O)Nc1cc2c(N[C@H](C)c3ccccc3)ncnc2cc1OC

- activity [18]: 0%
Structure (SMILES): C=CC(=O)Nc1ccc2ncnc(Nc3ccc(OCc4ccccc4)cc3)c2c1

The next lines start with the compound.

Structure (SMILES): CCc1cccc(CC)c1NC(=O)N1Cc2[nH]nc(NC(=O)c3ccc(N4CCN(C)CC4)cc3)c2C1
- IC50 [1]: > 10000 nM
- IC50 [2]: > 10000 nM

Structure (SMILES): N#CC(C#N)=Cc1cc(O)c(O)c(O)c1
- IC50 [3]: 50000 nM
- Ki [4]: 1000 nM

Structure (SMILES): O=C(CCCNc1ncc(C(F)(F)F)cc1Cl)NNS(=O)(=O)c1ccc(CNC(=O)c2ccc(Cl)cc2)s1
- IC50 [5]: > 10000 nM
- IC50 [6]: > 10000 nM

Structure (SMILES): COc1ccc(-c2cc(=O)cc(N3CCOCC3)o2)cc1
- IC50 [11]: > 50000 nM

Structure (SMILES): O=C(CNS(=O)(=O)c1ccc(CNC(=O)c2ccc(Cl)cc2)s1)NCCNc1ccc(C(F)(F)F)cn1
- IC50 [12]: > 30000 nM

Structure (SMILES): N#C/C(=C\c1ccc(O)c(O)c1)C(=O)NCCCCc1ccccc1
- IC50 [13]: 5000 nM

Structure (SMILES): CN(C)S(=O)(=O)c1ccc2c(c1)/C(=C/C1=CC3=C(CCCC3)C1)C(=O)N2
- IC50 [17]: > 100000 nM

Structure (SMILES): OCCC#Cc1nc(-c2ccc(F)cc2)c(-c2ccncc2)n1CCCc1ccccc1
- IC50 [20]: 19.2 nM
- IC50 [21]: 16.1 nM

Structure (SMILES): O=CN/C=C/c1cc(O)ccc1O
- IC50 [22]: 5000 nM

Structure (SMILES): NS(=O)(=O)c1ccc2c(c1)/C(=C/C1=CC3=C(CCCC3)C1)C(=O)N2
- IC50 [17]: > 100000 nM

Structure (SMILES): COC(=O)c1ccc(NCc2cc(O)ccc2O)cc1
- IC50 [23]: 250 nM

Structure (SMILES): CONC(=O)c1ccc(C)c(Nc2nc(N(C)CC(C)(C)C)nc(N3CCCN(C)CC3)n2)c1
- ED50 [25]: Between 3 to 10 mg kg-1
- Ki [6]: 4.2 nM

Structure (SMILES): Cc1cc(-c2[nH]c(-c3ccc([S+](C)[O-])cc3)nc2-c2ccc(F)cc2)ccn1 (configuration not stated)
- IC50 [21]: 370 nM
- difference [26]: -64%

Structure (SMILES): O=C1c2ccccc2-[n+]2ccc3c([nH]c4ccccc43)c21
- IC50 [27]: > 50000 nM
- IC50 [28]: > 50000 nM
- IC50 [2]: > 250000 nM

Structure (SMILES): Cc1cc(C)c(N2CCN(C)CC2)c(C)c1-c1nc(-c2ccncc2)c(-c2ccc(Cl)cc2)[nH]1
- IC50 [29]: 50 nM

Structure (SMILES): C[S+]([O-])c1ccc(-c2nc(-c3ccc(F)cc3)c(-c3ccncc3)[nH]2)cc1 (configuration not stated)
- activity [30]: 112%
- activity ([2]; concentration not given here): 91%

Structure (SMILES): COc1cccc(-c2cn(-c3ccc(CC(=O)NCCO)cc3)c3ncncc23)c1
- IC50 [31]: 800 nM

Structure (SMILES): CC(N)[C@H]1CC[C@H](C(=O)Nc2ccnc3[nH]ccc23)CC1 (some centres not stated)
- IC50 [33]: 48 nM

Structure (SMILES): N#C/C(=C\c1ccc(O)c(O)c1)C(=O)NCCCc1ccccc1
- IC50 [13]: 700 nM
